From patent US6562371B1, “Liposomes” (Terumo Kabushiki Kaisha, priority 1998, dated 2003)

Test system: Anti-Thy-1 antibody nephritis rats
Assay: Pharmacological effect: total protein content in urine
Assay type: in vivo, rat
Conditions: administered once i.v. on the fifth day after anti-Thy-1 antibody, urine collected on the tenth day
Experimental: Anti-Thy-1 antibody nephritis rats were prepared by intravenously administering an anti-Thy-1 antibody solution through the caudal vein of each CD (SD) male rat. On the fifth day after administration of the anti-Thy-1 antibody, the liposome dispersion liquid obtained in Preparation Example 15 (1 mg as prednisolone phosphate sodium) was administered by intravenous injection. On the tenth day after administration of the anti-Thy-1 antibody, urine was collected to measure the total protein content.
For the sake of comparison, the preparation of Comparative Example 1 (a liposome dispersion liquid having no included drug) or physiological saline was administered by the same method, and urine was collected on the tenth day after administration of the anti-Thy-1 antibody to measure the total protein content.
Also, a prednisolone phosphate sodium solution (1 mg as prednisolone phosphate sodium) which was not made into liposomes was administered once on the fifth day after administration of the anti-Thy-1 antibody, or five times (once a day for 5 days) started on the fifth day after administration of the anti-Thy-1 antibody, and urine was collected on the tenth day after administration of the anti-Thy-1 antibody to measure the total protein content.
Urine was also collected from un-treated normal rat to measure the total protein content.

prednisolone phosphate sodium
effect on excretion of protein into urine (total protein content): no effect was found
